{"source": "patent US20210277428A1", "about": "“NOVEL MALONYL-COA BIOSENSOR BASED ON TYPE III […] AND USE THEREOF” (KOREA ADVANCED INSTITUTE OF SCIENCE AND TECHNOLOGY, priority 2018, published 2021)", "key": {"[1]": {"tested_on": "E. coli BL21(DE3) strain containing the plasmid pTac-5′UTR-Sgr_rppA", "assay": "RppA malonyl-CoA biosensor characterization with cerulenin in E. coli", "format": "cell-based", "procedure": "After construction of a malonyl-CoA biosensor based on S. griseus RppA, the following experiment was performed in order to examine the applicability of the biosensor. First, the signal of the RppA malonyl-CoA biosensor was defined as the absorbance of culture supernatant at 340 nm (FIG. 3D). Generally, for characterizing a biosensor, different concentrations of a target compound has to be added to examine whether an increased signal occur. However, because malonyl-CoA is a substance that cannot pass through the cell membrane, adding malonyl-CoA to medium is meaningless. Thus, cerulenin (Sigma-aldrich, USA) known to block fatty acid biosynthetic pathways was used to indirectly characterize the biosensor (Omura S (1976), Bacteriol Rev 40:681-697.). Cerulenin blocks fatty acid biosynthetic pathways, and thus leads to the accumulation of malonyl-CoA, a fatty acid precursor. Thus, the concentration of malonyl-CoA in E. coli according to addition of different concentrations of cerulenin as described in previous studies was measured (Xu P, Li L, Zhang F, Stephanopoulos G, Koffas M (2014), Proc Natl Acad Sci USA 111:11299-11304). […] The inoculated cells were cultured in an incubator at 30° C. and 220 rpm for 16 hours, and then the growth (OD600) of the cells and the absorbance at 340 nm of the culture supernatant were measured. […]"}, "[2]": {"tested_on": "E. coli BL21(DE3) strains expressing AaOKS, AaPKS4 and AaPKS5", "assay": "AaOKS, AaPKS4 and AaPKS5 malonyl-CoA biosensor experiments using cerulenin", "format": "cell-based", "conditions": "different concentrations of cerulenin added to the medium"}, "[3]": {"tested_on": "P. putida pBBR1-rppA strain", "assay": "RppA malonyl-CoA biosensor characterization with cerulenin in P. putida", "format": "cell-based, Pseudomonas putida", "conditions": "MR-MOPS medium, increasing cerulenin concentration"}, "[4]": {"tested_on": "C. glutamicum pCES-His-rppA strain", "assay": "RppA malonyl-CoA biosensor characterization with cerulenin in C. glutamicum", "format": "cell-based, Corynebacterium glutamicum", "conditions": "increasing cerulenin concentration"}}}
{"smiles": "C/C=C/C/C=C/CCC(=O)[C@H]1O[C@H]1C(N)=O", "note": "[cerulenin]", "values": [{"measurement": "normalized signal (absorbance of culture supernatant at 340 nm)", "setting": "[1]; cerulenin 0, 5, 10, 15, 20, 25, 50, and 100 μM, 16 hours, 30° C., compared to the strain that does not express RppA", "value": "obviously increased as the concentration of cerulenin increased"}, {"measurement": "normalized production of flaviolin", "setting": "[1]; increasing cerulenin concentration, also observed by the naked eyes", "value": "increased with increasing cerulenin concentration"}, {"measurement": "signal (absorbance at 300 nm of the culture supernatant)", "setting": "[2]", "value": "signal generated from each strain increased as the intracellular malonyl-CoA concentration increased"}, {"measurement": "normalized production of flaviolin", "setting": "[3]", "value": "increased as the cerulenin concentration in the corresponding strain increased"}, {"measurement": "normalized signal", "setting": "[3]", "value": "increased as the cerulenin concentration in the corresponding strain increased"}, {"measurement": "normalized production of flaviolin", "setting": "[4]", "value": "increased as the cerulenin concentration in the corresponding strain increased"}, {"measurement": "normalized signal", "setting": "[4]", "value": "increased as the cerulenin concentration in the corresponding strain increased"}]}
